{
  "source": "patent US6437153B1",
  "about": "“Process for preparing 3-(1-hydroxyphenyl-1-alkoximinomethyl)dioxazines” (Bayer Aktiengesellschaft, priority 1996, dated 2002)",
  "assay": "logP determined by HPLC",
  "assay_type": "physicochemical",
  "key": {"[1]": {"details": "preparation examples, where two values are given they are the stereoisomers of the product mixture, read-out: HPLC: logP"}, "[2]": {"details": "preparation examples, where two values are given they are the stereoisomers of the product mixture"}},
  "note": "Where two headings read alike, the source gives them in different places.",
  "data": [
    {"molecule": "CON=C1COc2ccc(C)cc21", "note": "[(VI-2), 5-Methylbenzofuran-3-one O-methyl-oxime]", "values": [
      {"measurement": "chromatographic logP", "setting": "[1]", "value": 2.88}
    ]},
    {"molecule": "CO/N=C(/C1=NOCCO1)c1ccccc1O", "note": "[Compound (I-1), E-(5,6-dihydro-[1,4,2]dioxazin-3-yl)-(2-hydroxy-phenyl)-methanone O-methyl-oxime]", "values": [
      {"measurement": "chromatographic logP", "setting": "E isomer, Example 2 product, read-out: HPLC: logP (E isomer)", "value": 1.24},
      {"measurement": "chromatographic logP", "setting": "HPLC, preparation examples, where two values are given they are the stereoisomers of the product mixture, read-out: HPLC: logP", "value": 1.22}
    ]},
    {"molecule": "CON=C1C(=NOCCO)Oc2ccccc21", "note": "[Compound (II-1), benzofuran-2,3-dione 2-[O-(2-hydroxy-ethyl)-oxime]3-(O-methyl-oxime)]", "values": [
      {"measurement": "HPLC: logP", "setting": "[2]", "value": 1.79},
      {"measurement": "chromatographic logP", "setting": "[1]", "value": 1.65}
    ]},
    {"molecule": "CON=C1C(=NO)Oc2ccccc21", "note": "[Compound (III-1), benzofuran-2,3-dione 3-(O-methyl-oxime) 2-oxime]", "values": [
      {"measurement": "HPLC: logP", "setting": "[2]", "value": 1.72},
      {"measurement": "chromatographic logP", "setting": "[1]", "value": 1.56}
    ]},
    {"molecule": "CON=C(C[N+](=O)[O-])c1ccccc1O", "note": "[Compound (V-1), 1-(2-hydroxyphenyl)-2-nitro-ethanone O-methyl-oxime]", "values": [
      {"measurement": "chromatographic logP", "setting": "[1]", "value": 1.87}
    ]}
  ]
}
